In article PMC3888668 (Biological psychiatry, 2008):
Counter-ions that a name gives are not always drawn. Like-named read-outs stand apart in the source and are kept apart here. Marks after values point to notes of the source that are not given here.

Key:
[1] = test system: high-ethanol–consuming rats; conditions: for Preference for Ethanol: intermittent access to 20% ethanol, 24 hours, mean ± SEM, n = 12; for Ethanol consumption compared with vehicle: after 24 hours of ethanol access, intermittent access 20% ethanol; for Ethanol intake after 30 min: after 30 min of ethanol access, Figures 2A-2C in Supplement 1
DOP-R [2] = target: T1, DOP-R (Rattus norvegicus, UniProt P33533); assay type: biochemical; conditions: striatal membranes
T1 sequence (P33533 whole entry): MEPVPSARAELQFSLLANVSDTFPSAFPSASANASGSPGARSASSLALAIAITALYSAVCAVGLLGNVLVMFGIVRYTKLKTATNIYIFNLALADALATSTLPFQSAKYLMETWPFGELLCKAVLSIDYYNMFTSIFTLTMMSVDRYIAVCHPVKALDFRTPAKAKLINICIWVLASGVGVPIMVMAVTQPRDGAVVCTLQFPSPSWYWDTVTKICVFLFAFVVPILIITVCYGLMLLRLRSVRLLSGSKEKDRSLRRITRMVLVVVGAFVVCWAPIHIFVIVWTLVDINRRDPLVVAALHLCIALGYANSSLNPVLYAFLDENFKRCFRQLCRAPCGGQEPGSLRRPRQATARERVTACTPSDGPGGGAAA

[3] = test system: low-ethanol–consuming rats; assay: Continuous-access 10% ethanol two-bottle-choice drinking paradigm; conditions: for Preference for Ethanol: continuous access to 10% ethanol, mean ± SEM, n = 12
[4] = Preliminary pharmacokinetics in plasma; assay type: in vivo; conditions: IP, rat plasma
[5] = test system: high-ethanol–consuming rats; assay: Daily administration for 28 days, intermittent-access 20% ethanol, naive rats
[6] = target: δ opioid peptide receptor (DOP-R); conditions: cited from earlier work
rats [7] = assay: Morphine-mediated analgesia; assay type: in vivo, rat; conditions: Figures 1A and 1B in Supplement 1
rats [8] = assay: Anxiety; assay type: in vivo, rat; conditions: Figure 1D in Supplement 1
[9] = target: μ opioid peptide receptor (MOP-R); conditions: cited from earlier work
rats [10] = assay: Conditioned place preference; assay type: in vivo, rat; conditions: Figure 1C in Supplement 1
[11] = test system: high-ethanol–consuming rats; conditions: .3–1 mg/kg, IP; 30 min and 24 hours of ethanol access; cited from earlier work
DOP-R [12] = target: T1, DOP-R; assay type: biochemical; conditions: [35S]GTPγS binding

Oc1ccc2c3c1O[C@H]1c4[nH]c5ccccc5c4C[C@@]4(O)[C@@H](C2)N(CC2CC2)CC[C@]314 [Naltrindole, naltrindole]
Preference for Ethanol ([1]; 1 mg/kg IP): 53.4 ± 7.9%
Preference for Ethanol ([1]; 5 mg/kg IP): 55.1 ± 8.3%
Preference for Ethanol ([1]; 10 mg/kg IP): 48.8 ± 6.1%
Ethanol consumption compared with vehicle ([1]; all doses tested, IP): did not significantly affect ethanol consumption
IC50 (DOP-R [2]; Mean (± SEM) IC50 for Striatal DOP-R Inhibition, DPDPE Inhibition, DPDPE (10 μmol/L)-stimulated [35S]GTPγS binding): 0.4 ± 0.02 nM
IC50 (DOP-R [2]; Mean (± SEM) IC50 for Striatal DOP-R Inhibition, SNC80 Inhibition, SNC80 (10 μmol/L)-stimulated [35S]GTPγS binding): 31 ± 3.9 nM
IC50 (DOP-R [2]; Mean (± SEM) IC50 for Striatal DOP-R Inhibition, TAN67 Inhibition, TAN67 (10 μmol/L)-stimulated [35S]GTPγS binding): > 10000 nM
Preference for Ethanol ([3]; 1 mg/kg IP, 24 hours): 38.2 ± 3.7%
Preference for Ethanol ([3]; 5 mg/kg IP, 24 hours): 31.7 ± 4.0%
Preference for Ethanol ([3]; 10 mg/kg IP, 24 hours): 31.0 ± 3.3%
Ethanol consumption compared with vehicle ([3]; 5 and 10 mg/kg IP, 24 hours, continuous access 10% ethanol): significantly reduce ethanol consumption

Oc1ccc2c3c1O[C@H]1c4ncc(-c5ccc(Cl)cc5)cc4C[C@@]4(O)[C@@H](C2)N(CC2CC2)CC[C@]314 [SoRI-9409, 5’-(4-Chlorophenyl)-17-(cyclopropylmethyl)-6,7-didehydro-3,14-dihydroxy-4,5-α-epoxypyrido-[2’,3’:6,7]morphinan]
Detection in plasma after dosing [4]: still detectable in plasma at 12 hours after dosing
Elimination half-life ([4]; preliminary investigation): 2.5 h
Escalation and maintenance of ethanol intake compared with vehicle ([5]; 5 mg/kg IP daily for 28 days (12 ethanol exposures), n = 16): significantly reduced the escalation and maintenance of ethanol intake
Reduction of ethanol intake compared with saline-treated rats ([5]; 5 mg/kg IP daily, for up to 28 days): > 50%
Preference for Ethanol ([1]; 5 mg/kg IP): 49.9 ± 7.3%
Preference for Ethanol ([1]; 15 mg/kg IP): 42.1 ± 7.4 ^a %
Preference for Ethanol ([1]; 30 mg/kg IP): 32.8 ± 4.9 ^a %
Ethanol intake after 30 min [1]: selectively reduced ethanol intake
Ethanol consumption compared with vehicle ([1]; all doses tested, IP): significantly reduced ethanol consumption at all doses
Effectiveness at reducing ethanol consumption compared with naltrexone or naltrindole ([1]; high-ethanol–consuming animals): threefold more effective
Ki ([6]; read-out: Ki, binding affinity at the DOP-R): 2.2 ± 0.2 nM
higher binding affinity at the DOP-R relative to naltrexone ([6]; versus naltrexone structure): approximately 20 fold
IC50 (DOP-R [2]; read-out: Mean (± SEM) IC50 for Striatal DOP-R Inhibition, DPDPE Inhibition, DPDPE (10 μmol/L)-stimulated [35S]GTPγS binding): 3.5 ± 0.3 nM
IC50 (DOP-R [2]; read-out: Mean (± SEM) IC50 for Striatal DOP-R Inhibition, SNC80 Inhibition, SNC80 (10 μmol/L)-stimulated [35S]GTPγS binding): 31 ± 3.2 nM
IC50 (DOP-R [2]; read-out: Mean (± SEM) IC50 for Striatal DOP-R Inhibition, TAN67 Inhibition, TAN67 (10 μmol/L)-stimulated [35S]GTPγS binding): 56 ± 8.2 nM
Induction of analgesia and hyperalgesia (rats [7]): did not reduce morphine-mediated analgesia or induce analgesia and hyperalgesia
Ethanol consumption compared with vehicle ([3]; 5 mg/kg IP, 24 hours, continuous access 10% ethanol): but not the 5-mg/kg dose
Preference for Ethanol ([3]; 5 mg/kg IP, 24 hours): 39.5 ± 8.6%
Preference for Ethanol ([3]; 15 mg/kg IP, 24 hours): 32.4 ± 7.3 ^b %
Preference for Ethanol ([3]; 30 mg/kg IP, 24 hours): 24.0 ± 6.2 ^b %
Ethanol consumption compared with vehicle ([3]; 15 and 30 mg/kg IP, 24 hours, continuous access 10% ethanol): significantly reduce ethanol consumption
Anxiolytic or anxiogenic effect (rats [8]): is not anxiolytic or anxiogenic
Ki ([9]; read-out: Ki, binding affinity for the MOP-R): 51 ± 8 nM
reduced binding affinity for the MOP-R relative to naltrexone ([9]; versus naltrexone structure): approximately 20 fold
Conditioned place preference or aversion (rats [10]): does not produce conditioned place preference or aversion

O=C1CC[C@@]2(O)[C@H]3Cc4ccc(O)c5c4[C@@]2(CCN3CC2CC2)[C@H]1O5 [Naltrexone]
Preference for Ethanol ([1]; 5 mg/kg IP): 55.2 ± 7.1%
Preference for Ethanol ([1]; 15 mg/kg IP): 54.1 ± 6.4%
Preference for Ethanol ([1]; 30 mg/kg IP): 54.4 ± 4.7%
Ethanol consumption compared with vehicle ([1]; 15 and 30 mg/kg IP): significantly reduce ethanol consumption
Ethanol intake after 30 min [1]: selectively reduced ethanol intake
Preference for Ethanol ([3]; 5 mg/kg IP, 24 hours): 32.7 ± 5.9%
Preference for Ethanol ([3]; 15 mg/kg IP, 24 hours): 33.8 ± 7.3%
Preference for Ethanol ([3]; 30 mg/kg IP, 24 hours): 37.0 ± 4.9%
Ethanol consumption compared with vehicle ([3]; all doses (5, 15, 30 mg/kg IP), after 24 hours of access, continuous access 10% ethanol): did not produce any significant effect on ethanol consumption
Ethanol consumption after a limited access period ([3]; limited access period 1 hour, continuous access 10% ethanol, data not shown): a reduction in ethanol consumption was observed
Ethanol intake at lower doses [11]: reduce ethanol intake after 30 min but not after 24 hours

CN1CCC2(c3cccc(O)c3)Cc3nc4ccccc4cc3CC2C1 (stereo not drawn) [TAN67, (2-methyl-4a (α)-(3-hydroxyphenyl)-1,2,3,4,4a,5,12, 12a(α)-octahydro-quinolino[2,3,3,g]isoquinoline) dihydrobromide]
EC50 (DOP-R [12]; read-out: Mean (± SEM) EC50 for DOP-R Stimulation, Spinal Cord, spinal cord membranes): 3700 ± 2200 nM
EC50 (DOP-R [12]; read-out: Mean (± SEM) EC50 for DOP-R Stimulation, Striatum, striatum membranes): 372 ± 20 nM
